Results: patent US20170001990A1 (Genentech, Inc., priority 2014, published 2017)

Target: Human recombinant carboxy-terminal his-tagged LDHA (amino acids 2-332) (Homo sapiens, UniProt P00338)
Assay: LDHA enzyme inhibition assay (NADH fluorescence)
Conditions: LDHA IC50 (μM), 1 nM LDHA, NADH and pyruvate, stereochemistry of tested sample given

Compound | IC50
O=C1CC(c2ccsc2)(c2cccc(OCCCC(F)(F)F)n2)NC(=O)C1Sc1ccccc1Cl (single isomer, unassigned) [Example 121, 3-(2-chlorophenyl)sulfanyl-6-(3-thienyl)-6-[6-(4,4,4-trifluorobutoxy)-2-pyridyl]piperidine-2,4-dione] | 0.008 µM
CC(C)(O)CCCOc1cccc(C2(c3ccsc3)CC(=O)C(Sc3ccccc3Cl)C(=O)N2)n1 (single isomer, unassigned) [Example 126, 3-(2-chlorophenyl)sulfanyl-6-[6-(4-hydroxy-4-methyl-pentoxy)-2-pyridyl]-6-(3-thienyl) piperidine-2,4-dione] | 0.238 µM
O=C1CC(c2ccsc2)(c2cccc(Oc3cccc4ncccc34)n2)NC(=O)C1Sc1ccccc1Cl (single isomer, unassigned) [Example 128, 3-(2-chlorophenyl)sulfanyl-6-[6-(5-quinolyloxy)-2-pyridyl]-6-(3-thienyl) piperidine-2,4-dione] | 0.024 µM
CC(C)CCOc1cccc(C2(c3ccsc3)CC(=O)C(Sc3ccccc3Cl)C(=O)N2)n1 (single isomer, unassigned) [Example 133, 3-(2-chlorophenyl)sulfanyl-6-(6-isopentyloxy-2-pyridyl)-6-(3-thienyl) piperidine-2,4-dione] | 0.089 µM
CC(C)(O)CCCOc1cccc(C2(c3ccsc3)CC(=O)C(Sc3ccccc3Cl)C(=O)N2)n1 (single isomer, unassigned) [Example 135, 3-(2-chlorophenyl)sulfanyl-6-[6-(4-hydroxy-4-methyl-pentoxy)-2-pyridyl]-6-(3-thienyl) piperidine-2,4-dione] | 0.04 µM
O=C1CC(c2ccsc2)(c2cccc(Oc3cccc(C(F)F)c3)n2)NC(=O)C1Sc1ccccc1Cl (single isomer, unassigned) [Example 136, 3-(2-chlorophenyl)sulfanyl-6-[6-[3-(difluoro-methyl)phenoxy]-2-pyridyl]-6-(3-thienyl) piperidine-2,4-dione] | 0.222 µM
O=C1CC(c2ccsc2)(c2cccc(Oc3cccc4ncccc34)n2)NC(=O)C1Sc1ccccc1Cl (single isomer, unassigned) [Example 137, 3-(2-chlorophenyl)sulfanyl-6-[6-(5-quinolyloxy)-2-pyridyl]-6-(3-thienyl) piperidine-2,4-dione] | 0.073 µM
O=C1CC(c2ccsc2)(c2cccc(OCCCC(F)(F)F)n2)NC(=O)C1Sc1ccccc1Cl (single isomer, unassigned) [Example 142, 3-(2-chlorophenyl)sulfanyl-6-(3-thienyl)-6-[6-(4,4,4-trifluorobutoxy)-2-pyridyl]piperidine-2,4-dione] | 0.031 µM
O=C1CC(c2ccsc2)(c2cccc(Oc3ccc(F)c(Br)c3)n2)NC(=O)C1Sc1ccccc1Cl (single isomer, unassigned) [Example 143, 6-[6-(3-bromo-4-fluoro-phenoxy)-2-pyridyl]-3-(2-chlorophenyl)sulfanyl-6-(3-thienyl)piperidine-2,4-dione] | 0.033 µM
O=C1CC(c2ccsc2)(c2cccc(Oc3ccc(F)c(C(F)(F)F)c3)n2)NC(=O)C1Sc1ccccc1Cl (single isomer, unassigned) [Example 144, 3-(2-chlorophenyl)sulfanyl-6-[6-[4-fluoro-3-(trifluoromethyl)phenoxy]-2-pyridyl]-6-(3-thienyl) piperidine-2,4-dione] | 0.143 µM
CC(C)(O)CCOc1cccc(C2(c3ccsc3)CC(=O)C(Sc3ccccc3Cl)C(=O)N2)n1 (single isomer, unassigned) [Example 145, 3-(2-chlorophenyl)sulfanyl-6-[6-(3-hydroxy-3-methyl-butoxy)-2-pyridyl]-6-(3-thienyl)piperidine-2,4-dione] | 0.088 µM
O=C1CC(c2ccsc2)(c2cccc(Cc3cc(F)cc(F)c3)n2)NC(=O)C1Sc1ccccc1Cl (single isomer, unassigned) [Example 146, 3-(2-chlorophenyl)sulfanly-6-[6-[(3,5-difluorophenyl)methyl]-2-pyridyl]-6-(3-thienyl)piperidine-2,4-dione] | 0.189 µM
O=C1CC(c2ccsc2)(c2cccc(OCCCC(F)(F)F)n2)NC(=O)C1Sc1ccccc1Cl (single isomer, unassigned) [Example 148, 3-(2-chlorophenyl)sulfanyl-6-(3-thienyl)-6-[6-(4,4,4-trifluorobutoxy)-2-pyridyl]piperidine-2,4-dione] | 0.014 µM
O=C1CC(c2ccsc2)(c2cccc(Oc3ccc(F)c(Br)c3)n2)NC(=O)C1Sc1ccccc1Cl (single isomer, unassigned) [Example 149, 6-[6-(3-bromo-4-fluoro-phenoxy)-2-pyridyl]-3-(2-chlorophenyl)sulfanyl-6-(3-thienyl)piperidine-2,4-dione] | 0.069 µM

Results, then the compound that gave them:

IC50 | Compound
0.022 µM | O=C1CC(c2ccsc2)(c2cccc(Oc3ccc(F)c(Br)c3)n2)NC(=O)C1Sc1ccccc1Cl (single isomer, unassigned) [Example 122, 6-[6-(3-bromo-4-fluoro-phenoxy)-2-pyridyl]-3-(2-chlorophenyl)sulfanyl-6-(3-thienyl)piperidine-2,4-dione]
0.003 µM | CC(C)CCOc1cccc(C2(c3ccsc3)CC(=O)C(Sc3ccccc3Cl)C(=O)N2)n1 (single isomer, unassigned) [Example 124, 3-((2-chlorophenyl)thio)-6-(6-(isopentyloxy)pyridin-2-yl)-6-(thiophen-3-yl)piperidine-2,4-dione]
0.003 µM | O=C1CC(c2ccsc2)(c2cccc(OCCC3CCCC3)n2)NC(=O)C1Sc1ccccc1Cl (single isomer, unassigned) [Example 125, 3-((2-chlorophenyl)thio)-6-(6-(2-cyclopentyl-ethoxy)pyridin-2-yl)-6-(thiophen-3-yl) piperidine-2,4-dione]
0.008 µM | O=C1CC(c2ccsc2)(c2cccc(Oc3cccc(C(F)F)c3)n2)NC(=O)C1Sc1ccccc1Cl (single isomer, unassigned) [Example 127, 3-(2-chlorophenyl)sulfanyl-6-[6-[3-(difluoromethyl)phenoxy]-2-pyridyl]-6-(3-thienyl)piperidine-2,4-dione]
0.02 µM | O=C1CC(c2ccsc2)(c2cccc(Cc3cc(F)cc(F)c3)n2)NC(=O)C1Sc1ccccc1Cl (single isomer, unassigned) [Example 129, 3-((2-chlorophenyl)thio)-6-(6-(3,5-difluorobenzyl)pyridin-2-yl)-6-(thiophen-3-yl)piperidine-2,4-dione]
0.009 µM | O=C1CC(c2ccsc2)(c2cccc(OCCC3CCC3)n2)NC(=O)C1Sc1ccccc1Cl (single isomer, unassigned) [Example 132, 3-((2-chlorophenyl)thio)-6-(6-(2-cyclobutyl-ethoxy)pyridin-2-yl)-6-(thiophen-3-yl)piperidine-2,4-dione]
0.008 µM | O=C1CC(c2ccsc2)(c2cccc(OCCC3CCCC3)n2)NC(=O)C1Sc1ccccc1Cl (single isomer, unassigned) [Example 134, 3-(2-chlorophenyl)sulfanyl-6-[6-(2-cyclopentyl-ethoxy)-2-pyridyl]-6-(3-thienyl)piperidine-2,4-dione]
0.003 µM | O=C1CC(c2ccsc2)(c2cccc(OCCC3CCC3)n2)NC(=O)C1Sc1ccccc1Cl (single isomer, unassigned) [Example 141, 3-(2-chlorophenyl)sulfanyl-6-[6-(2-cyclobutyl-ethoxy)-2-pyridyl]-6-(3-thienyl)piperidine-2,4-dione]
